Test [1] has as its target CYP109E1 (Priestia megaterium, UniProt D5DKI8, E245A). As to the kind of experiment: in vitro turnover of purified mutant with Adx4-108/AdR, HPLC. The class given is biochemical.
Test [2] has as its target CYP109E1 (Priestia megaterium, UniProt D5DKI8, K187A). Described as above. It is filed as biochemical.
Test [3] concerns the target T1, CYP109E1 (Priestia megaterium, UniProt D5DKI8).
T1 sequence (D5DKI8 1-404): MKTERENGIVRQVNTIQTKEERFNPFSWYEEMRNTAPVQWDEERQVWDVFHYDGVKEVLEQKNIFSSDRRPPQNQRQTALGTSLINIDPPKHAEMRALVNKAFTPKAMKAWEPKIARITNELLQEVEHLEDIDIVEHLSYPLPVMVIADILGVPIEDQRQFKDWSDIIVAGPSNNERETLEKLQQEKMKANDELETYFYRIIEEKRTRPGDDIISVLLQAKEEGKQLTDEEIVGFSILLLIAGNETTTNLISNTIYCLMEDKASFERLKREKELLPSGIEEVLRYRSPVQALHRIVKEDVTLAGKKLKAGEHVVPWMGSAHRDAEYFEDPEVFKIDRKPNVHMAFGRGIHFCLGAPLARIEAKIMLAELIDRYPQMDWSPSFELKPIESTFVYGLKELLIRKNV
As to the kind of experiment: co-crystal structure. It is filed as binding.

Test [4] deals with T1, CYP109E1. As to the kind of experiment: co-crystal structure. The class given is binding. The source holds these as a separate data set.

SMILES strings stand for the structures. Like-named read-outs stand apart in the source and are kept apart here.

For `C[C@]12CC[C@H]3[C@@H](CCC4=CC(=O)CC[C@@]43C)[C@@H]1CC[C@@H]2O` [compound 11, testosterone], the “Catalytic activity for the formation of 16β-OH-TES, nmol.(nmol P450)^-1.min^-1” value in test [1] is 4.69 ± 0.04 nmol·(nmol P450)^−1·min^−1; in test [2], 1.43 ± 0.06 nmol·(nmol P450)^−1·min^−1. Also, the equilibrium dissociation constant (Kd) in test [3] came to 105 ± 10 µM.
In test [4], `C[C@]12C[C@H](O)[C@H]3[C@@H](CCC4=CC(=O)CC[C@@]43C)[C@@H]1CC[C@@H]2C(=O)CO` [compound 4, corticosterone] registered a Kd of 91 ± 8 µM.
